Entries after “also recorded” stand apart in the source; their conditions may differ.
What was measured:
[1] = system: LY6K-A24 (177-186) SP-specific CD8^+ T cells; test: Stimulation of healthy donor PBMC with the LY6K (172-191) long peptide, tetramer staining; assay type: cell-based, human; conditions: PBMC of HLA-A24+ healthy donors; LP 7 micro-M on days 0 and 7, 2 weeks, no cytokine; listed as LY6K (172-191) LP
Procedure: To assess the induction of LY6K-A24 (177-186) SP-specific CTLs from HLA-A24-positive donors by the simulation with LY6K (172-191) LP in vitro, PBMC (2×10^6/well of 24-well plates) were incubated with LY6K (172-191) LP (7 microM) for 2 weeks without addition of any cytokine. On day 0 and 7, LY6K (172-191) LP (7 microM) was added, then on day 14 of in vitro stimulation with LY6K (172-191) LP, the cells were harvested, stained with a PE-labeled tetramer of the HLA-A24 (A*24:02)/LY6K-A24 (177-186) complex in combination with a FITC-labeled anti-human CD8 mAb, and analyzed by flow cytometry.
(§1) Expression of LY6K-A24 (177-186) SP specific T cell receptor (TCR) was examined on a FACSCalibur (BD Biosciences) using a PE-labeled tetramer of the HLA-A*24:02/LY6K-A24 (177-186) SP complex (MBL, Nagoya, Japan) according to the manufacturer's instructions. A PE-labeled tetramer of the HLA-A*24:02/HIV-A24 (RYLRDQQLL: SEQ ID NO: 4) complex was used as a negative control.
To assess induction of LY6K-A24 (177-186) SP-specific CTLs from HLA-A24^+ donors (HDL1, HDL3, and HDL4) by simulation with LY6K (172-191) LP in vitro, PBMCs (2×10^6 cells/well of 24-well plates) were incubated with LY6K (172-191) LP (7 microM) for 2 weeks without addition of cytokines. […]

[2] = system: LY6K-A24 (177-186) SP-specific CTLs; test: Propagation of LY6K-A24 (177-186) SP specific CTLs by stimulation with LY6K-LPs in HNMT patients; assay type: cell-based, human
Procedure: (§2) PBMCs from 11 HNMT patients vaccinated with LY6K-A24 (177-186) SP were cultured with a mixture of LY6K (119-142) LP and LY6K (172-191) LP (10 micro-g/mL each) in a 24-well plate (2×10^6/well); rhIL-2 (20 IU/mL) and rhIL-7 (5 ng/mL) were added on day 0 and day 2. On day 0 (ex vivo) and day 7, the PBMCs were stained with a PE-labeled tetramer of the HLA-A*24:02/LY6K-A24 (177-186)-complex (MBL, Nagoya, Japan) with a FITC-labeled anti-human CD8 mAb.
as §1
as §2, with “5” for “11”, “with” for “with a mixture of LY6K (119-142) LP and”, “96-well” for “24-well”, “(1×10^5/well);” for “(2×10^6/well);”, “(177-186)-complex” for “(177-186)-complex (MBL, Nagoya, Japan)”

KCCKIRYCNLEGPPINSSVF [LY6K (172-191)]
induction/expansion of HLA-A24-restricted LY6K-A24 (177-186) SP-specific CD8+ T cells (tetramer) [1]: induced an expansion; also recorded: significantly induced
frequency of LY6K-A24 (177-186)-specific CTLs (tetramer+ cells) ([2]; HNMT108 PBMCs, day 7 after stimulation with LP 10 micro-g/mL (ex vivo day 0: 0.05%)): 0.35 % of CD8^+ T-cells
expansion of LY6K-A24 (177-186) SP-specific CTL (tetramer) ([2]; PBMC of a head and neck cancer patient immunized with LY6K-A24 (177-186) SP, one week in vitro stimulation with LP): significantly expanded
HNMT patients after vaccination with increase of proportion of tetramer+ CD8+ cells more than 2 times ([2]; PBMCs cultured 1 week with LY6K (172-191) LP 10 micro-g/mL): 4 of 5

Reference: patent US9644010B2, “LY6K epitope peptides for TH1 cells and vaccines containing the same” (ONCOTHERAPY SCIENCE, INC., priority 2012, dated 2017)
